For 1 molecule, IC50 results are on record in publication PMC9701690, “Teloxantron inhibits the processivity of telomerase with preferential DNA damage on telomeres” (Cell Death & Disease, 2022).

The target in this assay is T1, hTERT (catalytic subunit of human telomerase) (Homo sapiens, UniProt O14746).
T1 construct: gene TERT; with telomerase ribonucleoprotein (TERC RNA and accessory proteins)
As to the kind of experiment: test-tube TRAP assay. The class given is biochemical.

T1 sequence (O14746 whole entry): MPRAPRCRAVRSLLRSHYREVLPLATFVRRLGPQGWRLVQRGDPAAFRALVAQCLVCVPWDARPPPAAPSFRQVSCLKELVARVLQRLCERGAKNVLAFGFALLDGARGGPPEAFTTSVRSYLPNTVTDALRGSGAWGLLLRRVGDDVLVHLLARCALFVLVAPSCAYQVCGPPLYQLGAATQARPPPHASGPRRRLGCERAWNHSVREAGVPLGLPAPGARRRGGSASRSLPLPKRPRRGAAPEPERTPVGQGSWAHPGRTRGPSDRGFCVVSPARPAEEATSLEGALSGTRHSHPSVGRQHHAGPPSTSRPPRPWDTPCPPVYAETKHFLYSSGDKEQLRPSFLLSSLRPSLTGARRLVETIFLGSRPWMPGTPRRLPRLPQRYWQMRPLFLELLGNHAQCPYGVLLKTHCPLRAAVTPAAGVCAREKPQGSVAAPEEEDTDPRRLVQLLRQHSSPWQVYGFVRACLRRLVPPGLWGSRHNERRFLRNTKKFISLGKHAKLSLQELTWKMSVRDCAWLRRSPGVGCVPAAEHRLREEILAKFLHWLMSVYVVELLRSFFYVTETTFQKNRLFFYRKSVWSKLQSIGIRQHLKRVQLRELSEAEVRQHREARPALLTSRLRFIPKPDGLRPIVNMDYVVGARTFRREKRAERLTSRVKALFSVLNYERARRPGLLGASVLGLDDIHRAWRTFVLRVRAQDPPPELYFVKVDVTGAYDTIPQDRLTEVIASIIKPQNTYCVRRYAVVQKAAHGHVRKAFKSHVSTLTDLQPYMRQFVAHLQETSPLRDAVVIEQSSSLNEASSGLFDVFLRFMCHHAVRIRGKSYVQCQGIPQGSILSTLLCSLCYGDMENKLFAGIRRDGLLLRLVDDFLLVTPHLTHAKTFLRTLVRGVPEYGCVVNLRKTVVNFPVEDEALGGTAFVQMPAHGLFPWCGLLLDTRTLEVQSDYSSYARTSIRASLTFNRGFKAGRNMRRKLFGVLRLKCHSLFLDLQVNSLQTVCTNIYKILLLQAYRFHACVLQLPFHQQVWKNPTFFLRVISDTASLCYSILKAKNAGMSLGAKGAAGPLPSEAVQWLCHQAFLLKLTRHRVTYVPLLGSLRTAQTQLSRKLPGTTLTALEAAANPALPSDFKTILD

For orientation: IC50 means the concentration that inhibits the measured activity by half. A high value points to a need for much substance. In turn, `C/C(=C\C(=O)Nc1ccccc1C(=O)O)c1ccc2ccccc2c1` [BIBR1532] registered an IC50 of 64.1 ± 2.53 µM.
